The text below walks through data of patent publication US20050221475A1, “Cell culture procedures for inducing a neuronal phenotype in insect cells” (priority 2004, published 2005).

Assay [1] deals with continuous cell lines of the Beet Armyworm, Spodoptera exigua. The following applies: cell proliferation assay; cited from earlier work.
Assay [2] deals with acetylcholinesterase (ACHE). Particulars: 10^−6 M; cited from earlier work.
For assay [3], the system named is Sf21 cells. It is filed as cell-based, Spodoptera frugiperda.
The subject of assay [4] is Aedes aegypti established cell line. The following applies: 2 days exposure to 3×10^−7 M; cited from earlier work.
In assay [5] the test system is Sf21 cells. Briefly: Sf21 cell culture: morphology and count of cells displaying processes (transformants). Format: cell-based, Spodoptera frugiperda.
The next assay deals with Drosophila Kc-H line. The following applies: cited from earlier work.

For `Cc1c(COC(=O)[C@@H]2[C@H](/C=C(\Cl)C(F)(F)F)C2(C)C)cccc1-c1ccccc1` (racemic) [bifenthrin], in assay [1], the “activity in undifferentiated cells” value is “low activity”.
In the case of `CNC(=O)Oc1ccc2c(c1)[C@]1(C)CCN(C)[C@@H]1N2C.CNC(=O)Oc1ccc2c(c1)[C@]1(C)CCN(C)[C@@H]1N2C.O=S(=O)(O)O` [serine sulfate], in assay [2], the “effect on enzyme (AChE)” value is “blocked”.
As to `COc1ccc(C(=O)O[C@H]2CC[C@@]3(C)[C@@H]4CC[C@H]5[C@]6(O)C[C@H](O)[C@@]7(O)[C@@H](CN8C[C@@H](C)CC[C@H]8[C@@]7(C)O)[C@]6(O)C[C@@]53O[C@]24O)cc1OC` [veratridine], the “increase in the number of transformants” value in the assay with Sf21 cells [3] is reported as approximately 3 fold.
As for `NC1=N[C@H](O)[C@H]2[C@H]3O[C@]4(O)O[C@@H]([C@@H](O)[C@@]2(N1)[C@@H]4O)[C@]3(O)CO` [TTX, tetrodotoxin], the “effect on veratridine-induced increase in transformants” value in the assay with Sf21 cells [3] is “blocked”.
For `CC(C)(O)CC[C@@H](O)[C@](C)(O)[C@H]1CC[C@@]2(O)C3=CC(=O)[C@@H]4C[C@@H](O)[C@@H](O)C[C@]4(C)[C@H]3CC[C@]12C` [20-hydroxyecdysone], the “stimulation of AChE activity” value in assay [4] is 2 fold. In addition, the “increase in the number of cells showing one or more processes” value in the assay with Sf21 cells [5] (20 μg/ml, counted 2 days after treatment, vs control, n=8) was approximately 30 fold. Moreover, the “effect on cell morphology” value in the assay with Sf21 cells [5] (TNM-FH medium supplemented with 10 μg/ml, 48 hours after passage (FIG. 2)) is “numerous cells assume the appearance of monopolar neurons, with prominent axon-like structures”. In the assay on Drosophila Kc-H line, the “concentration at which cells extend long processes and acquire acetylcholinesterase activity” value is on record as “greater than or equal to 10^−8 molar”.
“nerve growth factor: nerve growth factor (NGF)”: the “effect on cell morphology” value in the assay with Sf21 cells [5] (20 μg/ml NGF, 48 hours after passage (FIG. 5)) was “does not induce any similar morphological changes”.
